Experimental data published in US20120172359A1 (NOVARTIS AG, priority 2010, published 2012).
Structures can show the parent of a compound that is named as a salt.

Biological target: Human BACE-1 (Homo sapiens, UniProt P56817)
Experiment: Test 1: Inhibition of Human BACE-1
Assay type: biochemical
Details: Test 1; recombinant BACE-1 (extracellular domain), acetate buffer pH 4.5, 1 hour with test compound at room temperature, fluorescence-quenched peptide substrate; read-out: Bace IC50

Chain of Human BACE-1 (P56817 46-457 limits assumed): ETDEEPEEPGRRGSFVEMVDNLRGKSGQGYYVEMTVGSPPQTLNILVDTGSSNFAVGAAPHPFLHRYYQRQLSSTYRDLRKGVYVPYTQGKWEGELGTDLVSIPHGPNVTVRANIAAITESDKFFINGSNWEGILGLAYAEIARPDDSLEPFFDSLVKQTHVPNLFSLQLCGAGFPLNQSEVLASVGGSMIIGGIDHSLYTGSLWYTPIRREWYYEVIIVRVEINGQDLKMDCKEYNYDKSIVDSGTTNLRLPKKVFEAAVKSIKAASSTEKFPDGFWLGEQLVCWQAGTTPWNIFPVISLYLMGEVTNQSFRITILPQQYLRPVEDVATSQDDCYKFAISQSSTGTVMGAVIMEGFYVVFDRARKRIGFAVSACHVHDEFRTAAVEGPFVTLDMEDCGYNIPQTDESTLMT

Compound | IC50
Cc1c(C(=O)Nc2ccc(F)c([C@]3(C(F)F)COCC(N)=N3)c2)oc2ccc(Br)cc12 [Example 114, 5-Bromo-3-methyl-benzofuran-2-carboxylic acid [3-((R)-5-amino-3-difluoromethyl-3,6-dihydro-2H-[1,4]oxazin-3-yl)-4-fluoro-phenyl]-amide hydrochloride] | 6 nM
Cl.[2H]c1nc(C(=O)Nc2ccc(F)c([C@]3(C(F)F)COCC(N)=N3)c2)c(C([2H])([2H])[2H])c([2H])c1Cl [Example 115, 5-Chloro-4,6-dideutero-3-trideuteromethyl-pyridine-2-carboxylic acid [3-((R)-5-amino-3-difluoromethyl-3,6-dihydro-2H-[1,4]oxazin-3-yl)-4-fluoro-phenyl]-amide hydrochloride] | 6 nM
NC1=N[C@@](c2cc(NC(=O)c3ncc(Br)cc3Cl)ccc2F)(C(F)F)COC1 [Example 117, 5-Bromo-3-chloro-pyridine-2-carboxylic acid [3-((R)-5-amino-3-difluoromethyl-3,6-dihydro-2H-[1,4]oxazin-3-yl)-4-fluoro-phenyl]-amide hydrochloride] | 18 nM
NC1=N[C@@](c2cc(NC(=O)c3ccc(Br)cn3)ccc2F)(C(F)F)COC1 [Example 118, 5-Bromo-pyridine-2-carboxylic acid [3-((R)-5-amino-3-difluoromethyl-3,6-dihydro-2H-[1,4]oxazin-3-yl)-4-fluoro-phenyl]-amide hydrochloride] | 14 nM
NC1=N[C@@](c2cc(NC(=O)c3ncc(Br)cc3O)ccc2F)(C(F)F)COC1 [Example 119, 5-Bromo-3-hydroxy-pyridine-2-carboxylic acid [3-((R)-5-amino-3-difluoromethyl-3,6-dihydro-2H-[1,4]oxazin-3-yl)-4-fluoro-phenyl]-amide hydrochloride] | 10 nM
CCOc1ccc(C(=O)Nc2ccc(F)c([C@]3(C(F)F)COCC(N)=N3)c2)nc1 [Example 120, 5-Ethoxy-pyridine-2-carboxylic acid [3-((R)-5-amino-3-difluoromethyl-3,6-dihydro-2H-[1,4]oxazin-3-yl)-4-fluoro-phenyl]-amide] | 180 nM
NC1=N[C@@](c2cc(NC(=O)c3ncc(Br)cn3)ccc2F)(C(F)F)COC1 [Example 121, 5-Bromo-pyrimidine-2-carboxylic acid [3-((R)-5-amino-3-difluoromethyl-3,6-dihydro-2H-[1,4]oxazin-3-yl)-4-fluoro-phenyl]-amide hydrochloride] | 36 nM
NC1=N[C@@](c2cc(NC(=O)c3cnc(C(F)F)cn3)ccc2F)(C(F)F)COC1 [Example 122, 5-Difluoromethyl-pyrazine-2-carboxylic acid [3-((R)-5-amino-3-difluoromethyl-3,6-dihydro-2H-[1,4]oxazin-3-yl)-4-fluoro-phenyl]-amide hydrochloride] | 200 nM
NC1=N[C@@](c2cc(NC(=O)c3cnc(OCC(F)F)cn3)ccc2F)(C(F)F)COC1 [Example 123, 5-(2,2-Difluoro-ethoxy)-pyrazine-2-carboxylic acid [3-((R)-5-amino-3-difluoromethyl-3,6-dihydro-2H-[1,4]oxazin-3-yl)-4-fluoro-phenyl]-amide hydrochloride] | 97 nM
NC1=N[C@@](c2cc(NC(=O)c3cnc(OCC(F)(F)F)cn3)ccc2F)(C(F)F)COC1 [Example 124, 5-(2,2,2-Trifluoro-ethoxy)-pyrazine-2-carboxylic acid [3-((R)-5-amino-3-difluoromethyl-3,6-dihydro-2H-[1,4]oxazin-3-yl)-4-fluoro-phenyl]-amide hydrochloride] | 25 nM
NC1=N[C@@](c2cc(NC(=O)c3cc(Br)co3)ccc2F)(C(F)F)COC1 [Example 125, 4-Bromo-furan-2-carboxylic acid [3-((R)-5-amino-3-difluoromethyl-3,6-dihydro-2H-[1,4]oxazin-3-yl)-4-fluoro-phenyl]-amide hydrochloride] | 78 nM
NC1=N[C@@](c2cc(NC(=O)c3cc4ccccn4n3)ccc2F)(C(F)F)COC1 [Example 126, Pyrazolo[1,5-a]pyridine-2-carboxylic acid [3-((R)-5-amino-3 difluoromethyl-3,6-dihydro-2H [1,4]oxazin-3-yl)-4-fluoro-phenyl]-amide hydrochloride] | 740 nM
Cc1nc(C(=O)Nc2ccc(F)c([C@]3(C(F)F)COCC(N)=N3)c2)co1 [Example 127, 2-Methyl-oxazole-4-carboxylic acid [3-((R)-5-amino-3-difluoromethyl-3,6-dihydro-2H-[1,4]oxazin-3-yl)-4-fluoro-phenyl]-amide hydrochloride] | 98 nM
Cc1nc(C(=O)Nc2ccc(F)c([C@]3(C(F)F)COCC(N)=N3)c2)c(C)o1 [Example 128, 2,5-Dimethyl-oxazole-4-carboxylic acid [3-((R)-5-amino-3-difluoromethyl-3,6-dihydro-2H-[1,4]oxazin-3-yl)-4-fluoro-phenyl]-amide] | 170 nM
COc1cc(Br)cnc1C(=O)Nc1ccc(F)c([C@]2(C(F)F)COCC(N)=N2)c1 [Example 130, 5-Bromo-3-methoxy-pyridine-2-carboxylic acid [3-((R)-5-amino-3-difluoromethyl-3,6-dihydro-2H-[1,4]oxazin-3-yl)-4-fluoro-phenyl]-amide hydrochloride] | 93 nM
CCc1nc(C(=O)Nc2ccc(F)c([C@]3(C(F)F)COCC(N)=N3)c2)co1 [Example 131, 2-Ethyl-oxazole-4-carboxylic acid [3-((R)-5-amino-3-difluoromethyl-3,6-dihydro-2H-[1,4]oxazin-3-yl)-4-fluoro-phenyl]-amide hydrochloride] | 330 nM
NC1=N[C@@](c2cc(NC(=O)c3ccc(C(F)F)cn3)ccc2F)(C(F)F)COC1 [Example 132, 5-Difluoromethyl-pyridine-2-carboxylic acid [3-((R)-5-amino-3-difluoromethyl-3,6-dihydro-2H-[1,4]oxazin-3-yl)-4-fluoro-phenyl]-amide hydrochloride] | 87 nM
Cn1ccnc1C(=O)Nc1ccc(F)c([C@]2(C(F)F)COCC(N)=N2)c1 [Example 133, 1-Methyl-1H-imidazole-2 carboxylic acid [3-((R)-5-amino-3 difluoromethyl-3,6-dihydro-2H [1,4]oxazin-3-yl)-4-fluoro-phenyl]-amide hydrochloride] | 1000 nM
NC1=N[C@@](c2cc(NC(=O)c3ccc(O)nn3)ccc2F)(C(F)F)COC1 [Example 134, 6-Hydroxy-pyridazine-3-carboxylic acid [3-((R)-5-amino-3-difluoromethyl-3,6-dihydro-2H-[1,4]oxazin-3-yl)-4-fluoro-phenyl]-amide hydrochloride] | 260 nM
COCCOc1cnc(C(=O)Nc2ccc(F)c([C@]3(C(F)F)COCC(N)=N3)c2)cn1 [Example 135, 5-(2-Methoxy-ethoxy)-pyrazine-2-carboxylic acid [3-((R)-5-amino-3-difluoromethyl-3,6-dihydro-2H-[1,4]oxazin-3-yl)-4-fluoro-phenyl]-amide hydrochloride] | 45 nM
NC1=N[C@@](c2cc(NC(=O)c3cnc(OCCF)cn3)ccc2F)(C(F)F)COC1 [Example 136, 5-(2-Fluoro-ethoxy)-pyrazine-2-carboxylic acid [3-((R)-5-amino-3-difluoromethyl-3,6-dihydro-2H-[1,4]oxazin-3-yl)-4-fluoro-phenyl]-amide hydrochloride] | 130 nM
